The structures appear in SMILES notation. Structures can show the parent of a compound that is named as a salt. Where two headings read alike, the source gives them in different places.

This note sets out measurements from US20050192261A1, “Methods and reagents for the treatment of immunoinflammatory disorders” (priority 2003, published 2005).

The assay relates to TNFα secretion in white blood cells from human buffy coat stimulated with phorbol 12-myristate 13-acetate and ionomycin. As to the kind of experiment: TNFα secretion assay. Conditions: for inhibition at 0.2 µM: read-out: percent inhibition of TNFα secretion, Loratadine 0.2 μM; for inhibition at 13 µM: read-out: percent inhibition of TNFα secretion, Loratadine 13 μM; for inhibition at 26 µM: read-out: percent inhibition of TNFα secretion, Loratadine 26 μM; for inhibition at 0.3 µM: read-out: % inhibition of TNFα secretion, Dipyridamole 0.3 μM; for inhibition at 19 µM: read-out: % inhibition of TNFα secretion, Dipyridamole 19 μM.

Where [1] appears, read: Homo sapiens, Desipramine HCl: 0/0.25/0.5/1/2/4/8/16/32 μM.
[2] abbreviates: Homo sapiens, Fluoxetine HCl μM: 0/0.23/0.45/0.9/1.8/3.6/7.2/14/29.
[3] abbreviates: Homo sapiens, Paroxetine HCl: 0/0.21/0.42/0.83/1.7/3.3/6.7/13/27 μM.
Where [4] appears, read: Homo sapiens, Bromodiphenhydramine HCl μM r5-r13: 0,0.21,0.43,0.85,1.7,3.4,6.8,14,27.
[5] abbreviates: Homo sapiens, Cyproheptadine HCl μM r5-r13: 0,0.24,0.48,0.96,1.9,3.9,7.7,15,31.
[6] abbreviates: Homo sapiens, Loratadine μM r5-r13: 0,0.2,0.41,0.82,1.6,3.3,6.5,13,26.
The mark [7] stands for this setting: Homo sapiens, Thiethylperazine Maleate μM r5-r13: 0,0.2,0.39,0.78,1.6,3.1,6.3,13,25.

Method: Drugs were added to the indicated concentration. […] The plate was then washed again with 0.1% Tween 20/PBS. An HRP-luminescent substrate was added to each well, and the light intensity of each well was measured using a plate luminometer.

In the case of `COc1ccc(CN(CCN(C)C)c2ccccn2)cc1` [Pyrilamine Maleate], where the note is “prednisolone […], pyrilamine maleate r5-r13: 0,0.19,0.38,0.76,1.5,3,6.1,12,24 μM”, the “inhibition of TNFα secretion” value came out at 20.
Take `CN(C)CCOC(c1ccccc1)c1ccc(Br)cc1` (stereo not shown) [Bromodiphenhydramine HCl, bromodiphenhydramine]: for the setting “Homo sapiens, read-out: percent inhibition of TNFα secretion, Bromodiphenhydramine HCl 14 μM, Fluoxetine HCl μM: 0/0.23/0.45/0.9/1.8/3.6/7.2/14/29”, the inhibition at 14 µM was 39%. In addition, for the setting “Homo sapiens, read-out: percent inhibition of TNFα secretion, Bromodiphenhydramine HCl 27 μM, Fluoxetine HCl μM: 0/0.23/0.45/0.9/1.8/3.6/7.2/14/29”, the inhibition at 27 µM is 65.2%. In addition, the “percent inhibition of TNFα secretion” value (Nortryptyline HCl 0 μM (Bromodiphenhydramine HCl alone), Bromodiphenhydramine HCl μM: 0/0.21/0.43/0.85/1.7/3.4/6.8/14/27) is −15.
As to `CC(C)(C(=O)O)c1ccc(C(O)CCCN2CCC(C(O)(c3ccccc3)c3ccccc3)CC2)cc1` (stereo not shown) [Fexofenadine HCl], the “inhibition of TNFα secretion” value (prednisolone 0.5 μM, fexofenadine HCl r5-r13: 0,0.073,0.15,0.29,0.58,1.2,2.3,4.6,9.3 μM) amounted to 50.
Regarding `CCOC(=O)N1CCC(=C2c3ccc(Cl)cc3CCc3cccnc32)CC1` [Loratadine, loratadine], under setting [1], the inhibition at 0.2 µM was -1.95%, the inhibition at 13 µM was found to be 31.7% and the inhibition at 26 µM turned out to be 41.5%. In addition, under setting [2], the inhibition at 0.2 µM stood at 3.68%, the inhibition at 13 µM is 42.9% and the inhibition at 26 µM was found to be 56.6%. Further, under setting [3], the inhibition at 0.2 µM is -1.38%, the inhibition at 13 µM is 38.3% and the inhibition at 26 µM turned out to be 43.4%.
With `CC(CN1c2ccccc2Sc2ccccc21)N(C)C` (stereo not shown) [Promethazine HCl, promethazine], the inhibition at 16 µM was found to be 30.4% (Homo sapiens, read-out: percent inhibition (dose matrix), Table 99, Promethazine HCl 16 μM, Amoxapine 0-25 μM); 30.8% (Homo sapiens, read-out: percent inhibition (dose matrix), Table 100, Promethazine HCl 16 μM, Fluoxetine HCl 0-29 μM); 31% (Homo sapiens, read-out: percent inhibition (dose matrix), Table 101, Promethazine HCl 16 μM, NOrtriptyline HCl 0-33 μM per row (c1)); 36.7% (Homo sapiens, read-out: percent inhibition (dose matrix), Table 102, Promethazine HCl 16 μM, Paroxetine HCl 0-27 μM per row (c1)); 22% (Homo sapiens, read-out: percent inhibition (dose matrix), Table 105, Promethazine HCl 16 μM, Fluoxetine HCl 0-29 μM); 60.4% (Homo sapiens, read-out: percent inhibition of TNFα secretion, Promethazine HCl 16 μM, Amoxapine μM r5-r13: 0,0.2,0.4,0.8,1.6,3.2,6.4,13,25). Moreover, the inhibition at 16 µM amounted to 42.8% (Homo sapiens, read-out: percent inhibition of TNFα secretion, Promethazine HCl 16 μM, Desipramine HCl: 0/0.25/0.5/1/2/4/8/16/32 μM); 65.3% (Homo sapiens, read-out: percent inhibition of TNFα secretion, Promethazine HCl 16 μM, Fluoxetine HCl μM r5-r13: 0,0.23,0.45,0.9,1.8,3.6,7.2,14,29); 57.1% (Homo sapiens, read-out: percent inhibition of TNFα secretion, Promethazine HCl 16 μM, Paroxetine HCl μM by row r5-r13: 0/0.21/0.42/0.83/1.7/3.3/6.7/13/27); 40% (Homo sapiens, read-out: percent inhibition of TNFα secretion, Promethazine HCl 16 μM, Sertraline HCl by grid row r5-r13: 0/0.25/0.5/1/2/4/7.9/16/32 μM). The inhibition at 31 µM by setting is: (Homo sapiens, read-out: percent inhibition (dose matrix), Table 99, Promethazine HCl 31 μM, Amoxapine 0-25 μM) 80.5%; (Homo sapiens, read-out: percent inhibition (dose matrix), Table 100, Promethazine HCl 31 μM, Fluoxetine HCl 0-29 μM) 69.5%; (Homo sapiens, read-out: percent inhibition (dose matrix), Table 101, Promethazine HCl 31 μM, NOrtriptyline HCl 0-33 μM per row (c1)) 69.4%; (Homo sapiens, read-out: percent inhibition (dose matrix), Table 102, Promethazine HCl 31 μM, Paroxetine HCl 0-27 μM per row (c1)) 78.8%; (Homo sapiens, read-out: percent inhibition (dose matrix), Table 105, Promethazine HCl 31 μM, Fluoxetine HCl 0-29 μM) 62.3%; (Homo sapiens, read-out: percent inhibition of TNFα secretion, Promethazine HCl 31 μM, Amoxapine μM r5-r13: 0,0.2,0.4,0.8,1.6,3.2,6.4,13,25) 85.4%. For the same compound, the inhibition at 31 µM (Homo sapiens, read-out: percent inhibition of TNFα secretion, Promethazine HCl 31 μM, Desipramine HCl: 0/0.25/0.5/1/2/4/8/16/32 μM) turned out to be 75.7%; the inhibition at 31 µM (Homo sapiens, read-out: percent inhibition of TNFα secretion, Promethazine HCl 31 μM, Fluoxetine HCl μM r5-r13: 0,0.23,0.45,0.9,1.8,3.6,7.2,14,29) came to 87%; the inhibition at 31 µM (Homo sapiens, read-out: percent inhibition of TNFα secretion, Promethazine HCl 31 μM, Paroxetine HCl μM by row r5-r13: 0/0.21/0.42/0.83/1.7/3.3/6.7/13/27) came out at 84.2%; the inhibition at 31 µM (Homo sapiens, read-out: percent inhibition of TNFα secretion, Promethazine HCl 31 μM, Sertraline HCl by grid row r5-r13: 0/0.25/0.5/1/2/4/7.9/16/32 μM) came out at 72.1%. Further, where the note is “prednisolone 1 μM, promethazine HCl r5-r13: 0,0.24,0.49,0.97,1.9,3.9,7.8,16,31 μM”, the “inhibition of TNFα secretion” value came to 38.
Regarding `OCCN(CCO)c1nc(N2CCCCC2)c2nc(N(CCO)CCO)nc(N3CCCCC3)c2n1` [Dipyridamole], the inhibition at 0.3 µM by setting is: under setting [4], 0.92%; under setting [5], -0.27%; under setting [6], 9.6%; under setting [7], 7%. Moreover, the inhibition at 19 µM under setting [4] amounted to 71%, the inhibition at 19 µM under setting [5] turned out to be 63%, the inhibition at 19 µM under setting [6] was 70% and the inhibition at 19 µM under setting [7] stood at 71%.

The inhibition is the change of the read-out against control, counted positive when it falls.
